The source of these data is ChEMBL document CHEMBL1811778, “The discovery and development of inhibitors of fatty acid amide hydrolase (FAAH)” (Bioorg Med Chem Lett, 2011).

Experiment [1] concerns the target T1, Fatty-acid amide hydrolase 1 (Homo sapiens, UniProt O00519).
T1 sequence (O00519 whole entry): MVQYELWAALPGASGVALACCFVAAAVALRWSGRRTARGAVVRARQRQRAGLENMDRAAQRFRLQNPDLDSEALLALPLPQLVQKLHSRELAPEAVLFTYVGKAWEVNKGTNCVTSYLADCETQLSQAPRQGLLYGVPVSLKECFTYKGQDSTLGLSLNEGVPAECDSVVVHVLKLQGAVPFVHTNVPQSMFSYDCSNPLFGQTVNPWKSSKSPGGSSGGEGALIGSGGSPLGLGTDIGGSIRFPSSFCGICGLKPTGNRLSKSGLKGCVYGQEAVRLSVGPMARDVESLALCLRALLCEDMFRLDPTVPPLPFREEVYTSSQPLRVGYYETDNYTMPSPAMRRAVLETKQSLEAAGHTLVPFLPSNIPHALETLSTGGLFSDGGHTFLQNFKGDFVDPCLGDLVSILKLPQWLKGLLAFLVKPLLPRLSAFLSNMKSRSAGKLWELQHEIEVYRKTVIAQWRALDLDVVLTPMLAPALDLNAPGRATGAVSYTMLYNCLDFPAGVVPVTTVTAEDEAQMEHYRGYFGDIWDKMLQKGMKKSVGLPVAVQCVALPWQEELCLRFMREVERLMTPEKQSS
As to the kind of experiment: Reversible inhibition of human FAAH.

The target in experiment [2] is T1, Fatty-acid amide hydrolase 1. Nature of the experiment: Inhibition of FAAH.
In experiment [3] the target is T2, Fatty-acid amide hydrolase 1 (Rattus norvegicus, UniProt P97612).
T2 sequence (P97612 whole entry): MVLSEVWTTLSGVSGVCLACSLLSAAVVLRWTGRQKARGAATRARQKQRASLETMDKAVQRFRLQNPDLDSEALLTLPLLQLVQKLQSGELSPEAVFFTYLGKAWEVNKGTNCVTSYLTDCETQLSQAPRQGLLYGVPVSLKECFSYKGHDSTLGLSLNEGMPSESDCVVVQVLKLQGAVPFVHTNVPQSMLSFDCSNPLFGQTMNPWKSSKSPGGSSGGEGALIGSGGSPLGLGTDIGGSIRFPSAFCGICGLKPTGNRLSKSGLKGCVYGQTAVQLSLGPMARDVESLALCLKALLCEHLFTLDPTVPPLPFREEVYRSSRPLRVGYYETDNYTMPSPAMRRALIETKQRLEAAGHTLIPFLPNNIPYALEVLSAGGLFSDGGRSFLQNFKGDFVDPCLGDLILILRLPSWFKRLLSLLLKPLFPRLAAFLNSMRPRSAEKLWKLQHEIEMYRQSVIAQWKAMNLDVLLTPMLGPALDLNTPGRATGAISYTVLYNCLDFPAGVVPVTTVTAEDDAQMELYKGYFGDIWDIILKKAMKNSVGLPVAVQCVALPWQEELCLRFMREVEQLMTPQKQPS
Nature of the experiment: Inhibition of rat FAAH assessed as conversion [14]C-oleamide to oleic acid.

The test system of experiment [4] is Rattus norvegicus. Nature of the experiment: In vivo inhibition of rat FAAH at 0.3 mg/kg, ip after 16 hrs. The experiment is classed as functional. Particulars: route intraperitoneal.

Some results are limits rather than exact numbers.

As to `CCn1c(=O)n(C2CCCN(c3nccc(-c4cc5ccccc5o4)n3)C2)c2ccccc21` (configuration not stated), the half-maximal inhibitory concentration (IC50) in experiment [1] amounted to 10 nM. In experiment [2], `O=C(N1CCN(c2cccc(C(F)(F)F)c2)CC1)n1nnc2ccc(-c3ccc(Cl)cc3)nc21` came in with an IC50 of 2 nM. Turning to `CCCCCCCC/C=C\CCCCCCCC(=O)c1nc2cccnc2o1`, the Ki in experiment [3] worked out at 11 nM. In turn, `CN(CCCCCl)C(=O)n1cnc(-c2ccccc2)c1` gave an IC50 in experiment [2] of 78 nM.

In experiment [2], `CCCCCCCC/C=C\CCCCCCC(=O)C(F)(F)F` yielded an inhibition constant Ki of 2 nM. Same read-out and setting: under `CCCCCCCC/C=C\CCCCCCC(=O)C(N)=O` stands 16 nM. Turning to `CCCCCCCCCCCCCC(=O)c1nc2ncccc2o1`, the affinity in experiment [2], expressed as Ki, was 1.7 nM. `CCCCCCCC/C=C\CCCCCCCC(=O)c1nccn1C`: the Ki in experiment [3] was > 100000 nM.

With `O=C(CCCCCCc1ccccc1)c1ncc(-c2cccnn2)o1`, the Ki in experiment [2] was 5.6 nM. In turn, `CCCCCC(=O)c1nc2ncccc2o1` showed an inhibitory constant (Ki) in experiment [2] of 15 nM. As for `CCn1ccc2cc(-c3ccc4oc(N5Cc6ccccc6C5)nc4c3)ccc21`, in experiment [1], the IC50 was 1.3 nM.

With `Cc1ccc2nc(-c3ccc(NC(=O)C4CCN(S(=O)(=O)c5cccs5)CC4)cc3)sc2c1`, in experiment [2], the IC50 turned out to be 18 nM. On the same count and under the same terms, under `O=C(N1CCC(Oc2ccc(OCc3cccc(F)c3)cc2)CC1)n1ccnc1` stands 0.093 nM. As to `CC(=O)c1nc2ncccc2o1`, the Ki in experiment [2] was > 100000 nM. In turn, `CCCCCCCC/C=C\CCCCCCC(=O)C(=O)OCC` had a Ki in experiment [2] of 1.4 nM. In turn, `NC(=O)c1cccc(-c2cccc(OC(=O)NC3CCCCC3)c2)c1` [URB-597] came in with an inhibition in vivo at 0.3 mg/kg in experiment [4] of 70%. For the compound `CCN(CC)S(=O)(=O)N1CCc2c(ccnc2Nc2cnc3ccccc3c2)C1`, the half-inhibitory concentration (IC50) in experiment [1] is < 100 nM. For `CCCCCCCC/C=C\CCCCCCC=O`, the Ki in experiment [2] turned out to be 40 nM.

As for `CCCCCCCC/C=C\CCCCCCCC(=O)c1nc2cnccc2o1`, the inhibition constant Ki in experiment [3] is 7.2 nM.

Compound `CCCCCCCCCCCCCCCC(=O)c1nc2ncccc2o1` displayed an inhibition constant Ki in experiment [2] of 1.9 nM.

In turn, `CCCCCCC(=O)c1nc2ncccc2o1` returned an inhibitory constant (Ki) in experiment [2] of 2.1 nM. On the same count and under the same terms, as for `CCCCC(=O)c1nc2ncccc2o1`, the figure is 50 nM; as for `CCCCCCCCCCCCCCCCCC(=O)c1nc2ncccc2o1`, 11 nM. In turn, `CCCCCCCCCC(=O)c1nc2ncccc2o1` came in with a Ki in experiment [2] of 0.75 nM. `COc1ccc(N2CCN(C(=O)n3nnc4ccc(N5CCCC5)nc43)CC2)cc1` yielded an IC50 in experiment [2] of 1 nM. As to `CCCCCCCCCCCC(=O)c1nc2ncccc2o1`, in experiment [2], the affinity, expressed as Ki, was 0.57 nM. Still for that read-out and setting: under `O=C(CCCCCCc1ccccc1)c1ncc(-c2ncccn2)o1` stands 4.6 nM. Still for that read-out and setting: as for `CCCCCCCC(=O)c1nc2ncccc2o1`, the figure is 0.69 nM.

The compound `O=C(CCCCCCc1ccccc1)c1ncc(-c2cnccn2)o1` had a Ki in experiment [2] of 5.3 nM.

With `O=C(CCCCCCc1ccccc1)c1ncc(-c2cscn2)o1`, the inhibitory constant (Ki) in experiment [2] came out at 5.8 nM. With `CCCCCCCC/C=C\CCCCCCCC(=O)C1=NCCO1`, the Ki in experiment [3] was found to be 4500 nM. Compound `O=C(CCCCCCc1ccccc1)c1ncc(-c2cocn2)o1` gave an inhibition constant (Ki) in experiment [2] of 4.6 nM.
